From PMC6009881, “New sulfurated derivatives of cinnamic acids and rosmaricine as inhibitors of STAT3 and NF-κB transcription factors” (Journal of Enzyme Inhibition and Medicinal Chemistry, 2017)
Where two headings read alike, the source gives them in different places.

Legend:
HCT-116 cells = experiment: MTT assay, cytotoxicity on HCT-116; format: cell-based, human; conditions: for IC50 at 48 h: human, HCT-116 cells; for IC50 at 48 h / IC50: MTT assay, NA = not active up to 100 μM, read-out: Cytotoxicity (HCT-116) IC50 ±SD, 48 h
Experimental: Following the same protocol used for previous cytotoxicity assays by N. Ferri[55], cells were seeded in 48-well plate (40.000 cells/well) and, after 24 h, they were incubated with different concentrations of our compounds for 48 h.
The determination of the conversion of MTT (3-(4,5-dimethyl-2-thiazolyl)-2,5-diphenyl-2H-tetrazolium bromide) to formazan was determined by using a commercially available kit (Millipore, Billerica, MA), according to the manufacturer’s instructions.

SH2-domain of STAT1 = target: T1, SH2-domain of STAT1 (Homo sapiens, UniProt P42224); experiment: STAT AlphaScreen-based assay (STAT1 selectivity); format: binding; conditions: for inhibition at 30 µM: read-out: STAT1 % inhibition ± SD at 30 μM, 30 μM; for IC50: read-out: STAT1 IC50 ±SD
T1 sequence (P42224 1-750): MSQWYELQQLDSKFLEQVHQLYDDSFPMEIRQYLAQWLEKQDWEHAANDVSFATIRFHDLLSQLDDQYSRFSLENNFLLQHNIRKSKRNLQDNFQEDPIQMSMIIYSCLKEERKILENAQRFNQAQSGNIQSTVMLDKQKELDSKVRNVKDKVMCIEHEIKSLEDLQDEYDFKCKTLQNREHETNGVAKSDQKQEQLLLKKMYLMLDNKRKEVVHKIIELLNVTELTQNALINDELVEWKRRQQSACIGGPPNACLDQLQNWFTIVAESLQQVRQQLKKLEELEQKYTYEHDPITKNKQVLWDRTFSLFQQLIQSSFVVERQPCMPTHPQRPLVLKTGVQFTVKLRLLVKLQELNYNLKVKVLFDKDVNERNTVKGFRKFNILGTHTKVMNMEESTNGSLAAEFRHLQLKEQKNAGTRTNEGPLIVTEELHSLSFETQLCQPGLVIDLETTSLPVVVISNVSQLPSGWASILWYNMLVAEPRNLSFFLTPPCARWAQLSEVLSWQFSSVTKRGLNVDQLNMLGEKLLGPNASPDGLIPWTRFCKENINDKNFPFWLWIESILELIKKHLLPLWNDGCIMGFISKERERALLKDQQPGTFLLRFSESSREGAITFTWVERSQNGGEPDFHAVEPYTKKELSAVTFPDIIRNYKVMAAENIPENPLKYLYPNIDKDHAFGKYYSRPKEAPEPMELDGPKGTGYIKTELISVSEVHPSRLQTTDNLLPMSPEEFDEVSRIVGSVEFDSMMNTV
Experimental: STAT3 inhibitory activity of the described compounds was tested by the AlphaScreen-based assay to evaluate the potential inhibition of the interaction between STAT3-SH2 domain and pTyr-containing peptides according to the previously reported procedure. For the most interesting compounds, selectivity tests versus STAT1 were performed.
The new sulfurated-drug hybrids, together with their parent compounds have been submitted to the AlphaScreen-based assay, to investigate their ability to bind STAT3 directly, through the evaluation of the inhibition of the binding of SH2-containing proteins to their correspondent phosphopeptides, the physiological ligands. […] Since AlphaScreen is a cell-free assay, not always there is a correspondence between the potency of STAT3 inhibition and cytotoxicity, probably due to not optimal physicochemical properties of the tested compounds, such as solubility and chemical stability in the culture medium and cell permeation.

STAT3-SH2 domain [1] = target: T2, STAT3-SH2 domain (Homo sapiens, UniProt P40763); experiment: STAT AlphaScreen-based assay (STAT3); format: binding; conditions: for IC50 / inhibition at 30 µM: AlphaScreen assay; for IC50: read-out: STAT3 IC50 ±SD; for inhibition at 30 µM: read-out: STAT3 % inhibition ± SD at 30 μM
T2 sequence (P40763 whole entry, the tested form may be a part): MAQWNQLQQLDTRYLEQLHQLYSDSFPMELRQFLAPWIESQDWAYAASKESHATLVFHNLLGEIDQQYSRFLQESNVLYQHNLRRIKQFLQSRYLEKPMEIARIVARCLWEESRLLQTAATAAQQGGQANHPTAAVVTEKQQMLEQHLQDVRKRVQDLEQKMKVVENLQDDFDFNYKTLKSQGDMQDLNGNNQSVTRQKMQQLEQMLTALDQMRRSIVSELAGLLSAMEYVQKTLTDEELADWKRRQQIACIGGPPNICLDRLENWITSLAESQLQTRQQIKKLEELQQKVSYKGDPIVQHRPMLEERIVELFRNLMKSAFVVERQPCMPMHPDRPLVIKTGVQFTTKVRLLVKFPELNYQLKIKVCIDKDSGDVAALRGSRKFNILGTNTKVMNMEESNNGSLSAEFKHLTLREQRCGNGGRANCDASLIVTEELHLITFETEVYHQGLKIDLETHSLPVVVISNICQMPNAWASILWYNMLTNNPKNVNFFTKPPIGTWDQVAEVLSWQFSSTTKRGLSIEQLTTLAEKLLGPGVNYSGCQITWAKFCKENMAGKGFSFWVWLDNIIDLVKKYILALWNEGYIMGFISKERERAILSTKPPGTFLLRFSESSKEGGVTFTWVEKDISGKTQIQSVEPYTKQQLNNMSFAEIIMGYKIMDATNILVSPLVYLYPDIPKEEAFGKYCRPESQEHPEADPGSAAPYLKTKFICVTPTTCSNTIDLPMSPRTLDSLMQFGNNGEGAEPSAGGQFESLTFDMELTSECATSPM

[2] = tested on: STAT3 reporter activity in HeLa cells; experiment: STAT3 luciferase reporter gene assay; format: cell-based; conditions: Homo sapiens, 2 h pretreatment, oncostatin M 10 ng/ml 4 h, read-out: STAT3 reporter assay (HeLa) IC50 ±SD
Experimental: STAT3 reporter HeLa stable cell lines (Signosis Inc, Santa Clara, CA) were incubated in a 96-well microplate for 24 h. Cells were pretreated with test compounds for 2 h, and 10 ng/ml (w/v) of oncostatin M were applied and incubated for 4 h. Cells were washed with medium not supplemented with phenol red, and Steady-Glo® reagent (Promega, Madison, WI) was applied. After 15 min incubation, the signals were detected by ARVO Light 1420 (PerkinElmer Life Sciences, Waltham, MA). The relative signal intensity was calculated in each well as the ratio for the mean signal of vehicle.

[3] = tested on: NF-κB promoter activity in HCT-116 cells; experiment: Luciferase reported NF-κB promoter activity assay; format: cell-based; conditions: Homo sapiens, 2 h pre-treatment, TNF-α 10 ng/ml, NA = not active up to 100 μM, read-out: NF-κB promoter assay (HCT-116) IC50 ±SD
Experimental: To measure the NF-κB promoter activity, HCT-116 cells were seeded in 100 mm dish and transiently transfected with 6 μg of DNA (NF-κB plasmid, containing luciferase reporter gene[57] with turbofect reagent (Carlo Erba Reagents). After 24 h, cells were seeded in 48-well plates (40.000 cells per well). On the next day, cells were incubated with our compounds for 2 h (pre-treatment) and then TNF-α was added in every well at (10 ng/ml). After 5–6 h, luciferase activity was measured by using Neolite reagent (PerkinElmer Life Sciences, Waltham, MA) according to the manufacturer’s instructions.

STAT3 = conditions: in some settings; read-out: STAT3 inhibition IC50; cited from earlier work
[4] = tested on: lymphocytic leukemia P388; parameters: method as in PMID 8003178; conditions: injected i.p. in mice, 24 h after the tumor implants; data from National Cancer Institute; cited from earlier work
[5] = tested on: MCF-7 (hormone sensitive breast cancer) cells; experiment: Cytotoxicity against MCF-7 cells; format: cell-based; conditions: in comparison to HCT-116
[6] = tested on: human smooth muscle cells (hSMC); experiment: Cytotoxicity versus normal human smooth muscle cells; format: cell-based
STAT3-SH2 domain [7] = target: T2, STAT3-SH2 domain; parameters: method as in PMID 28097912; conditions: maximum tested concentration 30 μM; read-out: STAT3-SH2 domain binding IC50 (AlphaScreen), previously described hybrids; cited from earlier work
[8] = tested on: PC3 subcutaneous xenografts; parameters: method as in PMID 18266964; conditions: in vivo; cited from earlier work
[9] = tested on: different tumoral cell lines; parameters: method as in PMID 18266964, PMID 22212895; conditions: cited from earlier work

| SMILES | inhibition at 30 µM (SH2-domain of STAT1) [%] | IC50 (SH2-domain of STAT1) [µM] | IC50 (STAT3-SH2 domain [1]) [µM] | inhibition at 30 µM (STAT3-SH2 domain [1]) [%] | IC50 [2] [µM] | IC50 [3] [µM] | melting point | IC50 at 48 h (HCT-116 cells) [µM] | fold increase of inhibitory potency on STAT3 (STAT3-SH2 domain [1]; in comparison to rosmaricine) [fold] | IC50 (STAT3) [µM] | IC50 (HCT-116 cells) [µM] | activity against lymphocytic leukemia P388 [4] | fold increase of antiproliferative activity (HCT-116 cells; HCT-116, in comparison to rosmaricine) [fold] | cytotoxicity against MCF-7 cells [5] | selectivity index (hSMC versus HCT-116) [6] | IC50 ([6]; Homo sapiens, HSMC) [µM] | IC50 (STAT3-SH2 domain [7]) [µM] | growth of PC3 in subcutaneous xenografts [8] | in vitro antiproliferative activity [9] |
| --- | --- | --- | --- | --- | --- | --- | --- | --- | --- | --- | --- | --- | --- | --- | --- | --- | --- | --- | --- |
| CC(C)c1cc2c(c(O)c1O)C13CCCC(C)(C)C1C(OC3=O)C2NC(=O)CCCCSS(C)(=O)=O (centres unmarked) [Compound 31, N-[5-(methylsulfonyl)thiopentanoyl]rosmaricine] | 99.9 ± 0.3 | 2.8 ± 0.1 | 0.2 | 100.1 ± 0.1 | > 100 | 53.3 ± 10.9 | 121.1 to 124.2 °C (dec.) | 73.8 ± 0.9 | 10 |  |  |  |  |  |  |  |  |  |  |
| CS(=O)(=O)SCCOC(=O)/C=C/c1ccc(O)c(O)c1 [Compound 21, (E)-2-(methylsulfonylthio)ethyl 3-(3,4-dihydroxyphenyl)acrylate] | 85.7 ± 4.3 | 17 ± 1.2 | 0.8 ± 0.2 | 100.1 ± 0.1 | 60.6 ± 2.8 | 128 ± 8.9 | 133.1 to 134.8 °C | 123 ± 17.3 |  |  |  |  |  |  |  |  |  |  |  |
| O=C(O)/C=C/c1ccc(O)c(O)c1 [Compound 19, caffeic acid, reference compound] |  |  | > 30 |  |  |  |  |  |  | 70 to 100 |  |  |  |  |  |  |  |  |  |
| COc1cc(/C=C/C(=O)OCCSS(C)(=O)=O)ccc1O [Compound 14, (E)-2-(methylsulfonylthio)ethyl 3-(4-hydroxy-3-methoxyphenyl)acrylate] | 110.5 ± 0.6 | 7 ± 0.7 | 0.9 | 110.1 ± 0.2 | 65.4 ± 1 | 116 ± 2.9 |  | 50.4 ± 5.9 |  |  |  |  |  |  |  |  |  |  |  |
| C=CCSSCCC(=O)NC1c2cc(C(C)C)c(O)c(O)c2C23CCCC(C)(C)C2C1OC3=O (centres unmarked) [Compound 32, N-[3-(allyldisulfanyl)propanoyl]rosmaricine] | 23.9 ± 0.4 | > 30 | 2.3 ± 0.4 | 99.5 | 37 ± 0.8 | 13 ± 0.7 | 206.9 to 209.2 °C | 3.5 ± 2.8 |  |  |  |  | 19 | confirmed, even at lower level | 6 | 21.2 |  |  |  |
| CCCC(CCC)C(=O)OCCSS(C)(=O)=O [a, 2-((methylsulfonyl)thio)ethyl 2-propylpentanoate] |  |  |  |  |  |  |  |  |  |  |  |  |  |  |  |  | 0.7 | inhibited the growth of PC3 in subcutaneous xenografts | good antiproliferative activity in micromolar concentrations |

Second part, led by results:

| inhibition at 30 µM (SH2-domain of STAT1) [%] | IC50 (SH2-domain of STAT1) [µM] | IC50 (STAT3-SH2 domain [1]) [µM] | inhibition at 30 µM (STAT3-SH2 domain [1]) [%] | IC50 [2] [µM] | IC50 [3] [µM] | melting point | SMILES | IC50 at 48 h (HCT-116 cells) [µM] | fold increase of inhibitory potency on STAT3 (STAT3-SH2 domain [1]; in comparison to rosmaricine) [fold] | IC50 (STAT3) [µM] | IC50 (HCT-116 cells) [µM] | activity against lymphocytic leukemia P388 [4] | fold increase of antiproliferative activity (HCT-116 cells; HCT-116, in comparison to rosmaricine) [fold] | cytotoxicity against MCF-7 cells [5] | selectivity index (hSMC versus HCT-116) [6] | IC50 ([6]; Homo sapiens, HSMC) [µM] | IC50 (STAT3-SH2 domain [7]) [µM] | growth of PC3 in subcutaneous xenografts [8] | in vitro antiproliferative activity [9] |
| --- | --- | --- | --- | --- | --- | --- | --- | --- | --- | --- | --- | --- | --- | --- | --- | --- | --- | --- | --- |
| 58.8 ± 5.9 | 19.7 ± 4 | 2.9 ± 0.2 | 94.5 ± 0.4 | > 100 | 73 ± 13.2 | 243.2 to 249.7 °C | CC(C)c1cc2c(c(O)c1O)C13CCCC(C)(C)C1C(OC3=O)C2NC(=O)c1ccc(-c2cssc2=S)cc1 (centres unmarked) [Compound 33, N-[4-(3-thioxo-3H-1,2-dithiol-4-yl)benzoyl]rosmaricine] | 65.4 ± 3.9 |  |  |  |  |  |  |  |  |  |  |  |
| 91.8 | 10 ± 0.6 | 1.9 ± 0.1 | 99.7 | 42.4 ± 2.4 | 43.4 ± 6.9 | 198.2 to 202.5 °C | CC(C)c1cc2c(c(O)c1O)C13CCCC(C)(C)C1C(OC3=O)C2N (centres unmarked) [Compound 30, rosmaricine] | 65 |  |  | 65.2 ± 2.3 | inactive or endowed with borderline activity |  |  |  |  |  |  |  |
| 21.5 ± 1.8 | > 30 | 13.2 ± 0.9 | 66.7 ± 0.5 | 40 ± 1.5 | 40.6 ± 3 | 199.5 to 201.5 °C | O=C(/C=C/c1ccc(O)c(O)c1)Oc1ccc(-c2cc(=S)ss2)cc1 [Compound 24, (E)-4-(3-thioxo-3H-1,2-dithiol-5-yl)phenyl 3-(3,4-dihydroxyphenyl)acrylate] | 46.7 |  |  | 46.7 ± 4.1 |  |  |  |  |  |  |  |  |
